One data set concerns the target T1, hAMY3 receptor (Homo sapiens, UniProt O60896+P30988).
T1 sequence (P30988 25-474): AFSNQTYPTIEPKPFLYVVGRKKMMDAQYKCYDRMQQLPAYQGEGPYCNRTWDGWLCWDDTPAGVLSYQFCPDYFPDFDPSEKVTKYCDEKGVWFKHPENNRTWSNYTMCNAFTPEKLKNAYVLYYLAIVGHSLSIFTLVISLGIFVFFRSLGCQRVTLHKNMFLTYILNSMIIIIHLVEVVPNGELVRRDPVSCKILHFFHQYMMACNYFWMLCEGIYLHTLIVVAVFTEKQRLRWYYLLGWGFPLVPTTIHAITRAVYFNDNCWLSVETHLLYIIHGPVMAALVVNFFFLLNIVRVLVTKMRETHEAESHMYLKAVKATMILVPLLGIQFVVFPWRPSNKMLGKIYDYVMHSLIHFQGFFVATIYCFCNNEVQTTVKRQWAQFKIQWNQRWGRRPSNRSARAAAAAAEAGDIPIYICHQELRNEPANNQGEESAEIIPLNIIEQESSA
T1 sequence (O60896 24-148 partner): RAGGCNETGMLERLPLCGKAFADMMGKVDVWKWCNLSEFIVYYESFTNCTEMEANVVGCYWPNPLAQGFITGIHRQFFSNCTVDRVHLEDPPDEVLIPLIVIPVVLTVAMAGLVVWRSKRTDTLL
Nature of the data set: cAMP assay for in vitro receptor activation, hAMY3-R. The data set is classed as cell-based. The following applies: cAMP assay, hAMY3 receptor; read-out: hAMY3R EC50. Put shortly:
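Accumulated cAMP was detected by time-resolved FRET one hour after reagent addition. Beforehand, hAMY3-R-overexpressing monoclonal cells (2000/well, DPBS, 0.05% casein, 0.5 mM IBMX) received graded doses of compound for 30 min at room temperature; human amylin served as positive control.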
Background: cAMP levels reflect the balance of adenylyl cyclase and phosphodiesterase activity.

The next data set concerns the target hAM1 receptor (Homo sapiens, UniProt O60895+Q16602). Nature of the data set: cAMP assay for in vitro receptor activation, hAM1-R. The following applies: cAMP assay, hAM1 receptor; read-out: hAM1R EC50. The data set is classed as cell-based. The method, boiled down: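 A subcloned monoclonal line stably expressing hAM1 receptor is thawed and plated at 8000 cells/well. The assay buffer is DPBS with 0.05% casein and 0.5 mM IBMX, and receptor activation is followed by cAMP levels.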

Data set [1] can be described thus: Physical stability of peptide analogues (Thioflavin T fibrillation). The following applies: maximum ThT signal normalized between hAMY maximum and buffer background; 40° C., shaking, four days; pH 7 per table title. The data set is classed as physicochemical. The method, boiled down: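 Peptides in 50 mM sodium acetate pH 4 or 50 mM sodium phosphate pH 7 were preincubated 1 h, mixed with 4 μM ThT, held at 40° C with 700 rpm shaking before each read. Fluorescence (ex 450/em 480 nm) every 10 min for four days; LOESS-smoothed maximum signal normalized in percent between hAMY and buffer.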

Bridge positions count the residues as written; N and C are the ends. Square brackets hold non-standard residues; d marks the D form. Peptide text beside a SMILES is read from it. Hyp = O=C(O)[C@@H]1C[C@@H](O)CN1

A word on the EC50: it is the midpoint of the concentration-response curve.

hAM1 receptor, sequence (Q16602 23-461): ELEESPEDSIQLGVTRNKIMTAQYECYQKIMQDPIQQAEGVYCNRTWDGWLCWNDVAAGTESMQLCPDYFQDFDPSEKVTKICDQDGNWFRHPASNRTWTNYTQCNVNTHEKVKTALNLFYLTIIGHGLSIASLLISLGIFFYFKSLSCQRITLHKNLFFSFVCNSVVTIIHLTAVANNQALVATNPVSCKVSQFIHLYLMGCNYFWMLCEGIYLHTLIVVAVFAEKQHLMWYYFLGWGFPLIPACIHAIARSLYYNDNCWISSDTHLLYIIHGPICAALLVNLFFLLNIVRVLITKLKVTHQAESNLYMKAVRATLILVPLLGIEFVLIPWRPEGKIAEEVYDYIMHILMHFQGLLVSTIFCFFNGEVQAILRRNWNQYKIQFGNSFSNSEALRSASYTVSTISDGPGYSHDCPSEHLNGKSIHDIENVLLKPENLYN
hAM1 receptor, sequence (O60895 43-175 partner): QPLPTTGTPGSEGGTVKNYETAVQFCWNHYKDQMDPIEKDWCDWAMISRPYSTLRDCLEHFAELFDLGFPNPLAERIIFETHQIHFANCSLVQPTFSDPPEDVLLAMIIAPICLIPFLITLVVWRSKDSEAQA

Turning to `CC[C@H](C)[C@H](NC(=O)[C@H](CCC(N)=O)NC(=O)[C@H](CCC(=O)O)NC(=O)[C@H](C)NC(=O)[C@H](CC(C)C)NC(=O)[C@H](Cc1c[nH]c2ccccc12)NC(=O)[C@H](CCC(N)=O)NC(=O)[C@@H](NC(=O)[C@@H](NC(=O)[C@@H]1CSSC[C@H](NC(=O)[C@@H](N)CCCCN)C(=O)N[C@@H](CC(N)=O)C(=O)N[C@@H](C)C(=O)N[C@@H](C)C(=O)N[C@@H]([C@@H](C)O)C(=O)N1)[C@@H](C)O)C(C)C)C(=O)N[C@@H](Cc1ccc(O)cc1)C(=O)N[C@@H](CCC(N)=O)C(=O)N[C@@H](Cc1ccccc1)C(=O)N[C@H](C(=O)N[C@@H](CC(=O)O)C(=O)N[C@@H](CCCCN)C(=O)N[C@@H](CC(=O)O)C(=O)N[C@@H](CCCCN)C(=O)N[C@@H](CC(=O)O)C(=O)N[C@@H](CC(N)=O)C(=O)N[C@H](C(=O)N[C@@H](C)C(=O)N1CCC[C@H]1C(=O)N1CCC[C@H]1C(=O)N[C@H](C(=O)N[C@@H](CC(N)=O)C(=O)N[C@H](C(=O)NCC(=O)N[C@@H](CO)C(=O)N[C@@H](CC(N)=O)C(=O)NCC(=O)N1C[C@H](O)C[C@H]1C(N)=O)C(C)C)[C@@H](C)O)C(C)C)[C@@H](C)O` [compound 333] (H-KCNAATCTVQWLAEQIYQFTDKDKDNVAPPTNVGSNG[Hyp]-NH2; disulfide 2-7; N-terminus assumed), the EC50 at hAMY3 receptor turned out to be 0.236 nM; on hAM1 receptor it was 0.107 µM. Besides, the “Max ThT signal (%)” value in data set [1] is listed as 25.700%.

Regarding `CC[C@H](C)[C@H](NC(=O)[C@H](CCC(N)=O)NC(=O)[C@H](Cc1c[nH]cn1)NC(=O)[C@H](C)NC(=O)[C@H](CC(C)C)NC(=O)[C@H](Cc1c[nH]c2ccccc12)NC(=O)[C@H](CCC(N)=O)NC(=O)[C@@H](NC(=O)[C@@H](NC(=O)[C@@H]1CSSC[C@H](NC(=O)[C@@H](N)CCCCN)C(=O)N[C@@H](CC(N)=O)C(=O)N[C@@H]([C@@H](C)O)C(=O)N[C@@H](C)C(=O)N[C@@H]([C@@H](C)O)C(=O)N1)[C@@H](C)O)C(C)C)C(=O)N[C@@H](Cc1ccc(O)cc1)C(=O)N[C@@H](CCC(N)=O)C(=O)N[C@@H](Cc1ccccc1)C(=O)N[C@H](C(=O)N[C@@H](CC(=O)O)C(=O)N[C@@H](CCCCN)C(=O)N[C@@H](CC(=O)O)C(=O)N[C@@H](CCCCN)C(=O)N[C@@H](CC(=O)O)C(=O)N[C@@H](CC(N)=O)C(=O)N[C@H](C(=O)N[C@@H](C)C(=O)N1CCC[C@H]1C(=O)N[C@@H](CCCNC(=N)N)C(=O)N[C@H](C(=O)N[C@@H](CCC(=O)O)C(=O)N[C@H](C(=O)NCC(=O)N[C@@H](CO)C(=O)N[C@@H](CC(N)=O)C(=O)NCC(=O)N[C@@H](Cc1ccc(O)cc1)C(N)=O)C(C)C)[C@@H](C)O)C(C)C)[C@@H](C)O` [compound 334] (H-KCNTATCTVQWLAHQIYQFTDKDKDNVAPRTEVGSNGY-NH2; disulfide 2-7), the half-maximal effective concentration (EC50) on hAMY3 receptor is 0.013 nM; on hAM1 receptor, above 5 µM. In addition, the “Max ThT signal (%)” value in data set [1] turned out to be 10.150%.

For `CC[C@H](C)[C@H](NC(=O)[C@H](CCC(N)=O)NC(=O)[C@H](Cc1c[nH]cn1)NC(=O)[C@H](C)NC(=O)[C@H](CC(C)C)NC(=O)[C@H](Cc1c[nH]c2ccccc12)NC(=O)[C@H](CCC(N)=O)NC(=O)[C@@H](NC(=O)[C@@H](NC(=O)[C@@H]1CSSC[C@H](NC(=O)CN)C(=O)N[C@@H](CCCNC(=N)N)C(=O)N[C@@H]([C@@H](C)O)C(=O)NCC(=O)N[C@@H]([C@@H](C)O)C(=O)N1)[C@@H](C)O)C(C)C)C(=O)N[C@@H](Cc1ccc(O)cc1)C(=O)N[C@@H](CCC(N)=O)C(=O)N[C@@H](Cc1ccccc1)C(=O)N[C@H](C(=O)N[C@@H](CC(=O)O)C(=O)N[C@@H](CCCCN)C(=O)N[C@@H](CC(=O)O)C(=O)N[C@@H](CCCCN)C(=O)N[C@@H](CC(=O)O)C(=O)N[C@@H](CC(N)=O)C(=O)N[C@H](C(=O)N[C@@H](C)C(=O)N1CCC[C@H]1C(=O)N[C@@H](CCCNC(=N)N)C(=O)N[C@H](C(=O)N[C@@H](CC(N)=O)C(=O)N[C@H](C(=O)NCC(=O)N1CCC[C@H]1C(=O)N[C@@H](CCC(N)=O)C(=O)NCC(=O)N[C@@H](Cc1ccc(O)cc1)C(N)=O)C(C)C)[C@@H](C)O)C(C)C)[C@@H](C)O` [compound 335] (H-GCRTGTCTVQWLAHQIYQFTDKDKDNVAPRTNVGPQGY-NH2; disulfide 2-7; N-terminus assumed), the EC50 was 0.015 nM at hAMY3 receptor and above 5 µM at hAM1 receptor. The “Max ThT signal (%)” value in data set [1] is given as 1.600%.

On to `CC[C@H](C)[C@H](NC(=O)[C@H](CCCCN)NC(=O)[C@@H](NC(=O)[C@H](CCCNC(=N)N)NC(=O)[C@@H]1CCCN1C(=O)[C@H](C)NC(=O)[C@@H](NC(=O)[C@H](CC(N)=O)NC(=O)[C@H](CC(=O)O)NC(=O)[C@H](CCCCN)NC(=O)[C@H](CC(=O)O)NC(=O)[C@H](CCCCN)NC(=O)[C@H](CC(=O)O)NC(=O)[C@@H](NC(=O)[C@H](Cc1ccccc1)NC(=O)[C@H](CCC(N)=O)NC(=O)[C@H](Cc1ccc(O)cc1)NC(=O)[C@@H](NC(=O)[C@H](CCC(N)=O)NC(=O)[C@H](Cc1c[nH]cn1)NC(=O)[C@H](C)NC(=O)[C@H](CC(C)C)NC(=O)[C@H](Cc1c[nH]c2ccccc12)NC(=O)[C@H](CCC(N)=O)NC(=O)[C@@H](NC(=O)[C@@H](NC(=O)[C@@H]1CSSC[C@H](NC(=O)CN)C(=O)N[C@@H](CCCNC(=N)N)C(=O)N[C@@H]([C@@H](C)O)C(=O)NCC(=O)N[C@@H]([C@@H](C)O)C(=O)N1)[C@@H](C)O)C(C)C)[C@@H](C)CC)[C@@H](C)O)C(C)C)[C@@H](C)O)C(=O)NCC(=O)N1CCC[C@H]1C(=O)N[C@@H](CC(N)=O)C(=O)NCC(=O)N1C[C@H](O)C[C@H]1C(N)=O` [compound 339] (H-GCRTGTCTVQWLAHQIYQFTDKDKDNVAPRTKIGPNG[Hyp]-NH2; disulfide 2-7; N-terminus assumed), for which the results for the EC50 at hAMY3 receptor and on hAM1 receptor were 0.047 nM and above 5 µM, respectively. In addition, the “Max ThT signal (%)” value in data set [1] is on record as 20.050%.

Turning to `CC[C@H](C)[C@H](NC(=O)[C@H](CC(N)=O)NC(=O)[C@@H](NC(=O)[C@H](CCCNC(=N)N)NC(=O)[C@@H]1CCCN1C(=O)[C@H](C)NC(=O)[C@@H](NC(=O)[C@H](CC(N)=O)NC(=O)[C@H](CC(=O)O)NC(=O)[C@H](CCCCN)NC(=O)[C@H](CC(=O)O)NC(=O)[C@H](CCCCN)NC(=O)[C@H](CC(=O)O)NC(=O)[C@@H](NC(=O)[C@H](Cc1ccccc1)NC(=O)[C@H](CCC(N)=O)NC(=O)[C@H](Cc1ccc(O)cc1)NC(=O)[C@@H](NC(=O)[C@H](CCC(N)=O)NC(=O)[C@H](Cc1c[nH]cn1)NC(=O)[C@H](C)NC(=O)[C@H](CC(C)C)NC(=O)[C@H](Cc1c[nH]c2ccccc12)NC(=O)[C@H](CCC(N)=O)NC(=O)[C@@H](NC(=O)[C@@H](NC(=O)[C@@H]1CSSC[C@H](NC(=O)CN)C(=O)N[C@@H](CCCNC(=N)N)C(=O)N[C@@H]([C@@H](C)O)C(=O)NCC(=O)N[C@@H]([C@@H](C)O)C(=O)N1)[C@@H](C)O)C(C)C)[C@@H](C)CC)[C@@H](C)O)C(C)C)[C@@H](C)O)C(=O)NCC(=O)N1CCC[C@H]1C(=O)N[C@@H](CCC(N)=O)C(=O)NCC(=O)N1C[C@H](O)C[C@H]1C(N)=O` [compound 341] (H-GCRTGTCTVQWLAHQIYQFTDKDKDNVAPRTNIGPQG[Hyp]-NH2; disulfide 2-7; N-terminus assumed), the half-maximal effective concentration (EC50) on hAMY3 receptor is 0.029 nM; on hAM1 receptor it was above 5 µM. In data set [1], the “Max ThT signal (%)” value was 20.500%.

`CC[C@H](C)[C@H](NC(=O)[C@H](CCC(N)=O)NC(=O)[C@H](Cc1c[nH]cn1)NC(=O)[C@H](C)NC(=O)[C@H](CC(C)C)NC(=O)[C@H](Cc1c[nH]c2ccccc12)NC(=O)[C@H](CCC(N)=O)NC(=O)[C@@H](NC(=O)[C@@H](NC(=O)[C@@H]1CSSC[C@H](NC(=O)CN)C(=O)N[C@@H](CCCNC(=N)N)C(=O)N[C@@H]([C@@H](C)O)C(=O)NCC(=O)N[C@@H]([C@@H](C)O)C(=O)N1)[C@@H](C)O)C(C)C)C(=O)N[C@@H](Cc1ccc(O)cc1)C(=O)N[C@@H](CCC(N)=O)C(=O)N[C@@H](Cc1ccccc1)C(=O)N[C@H](C(=O)N[C@@H](CC(=O)O)C(=O)N[C@@H](CCCCN)C(=O)N[C@@H](CC(=O)O)C(=O)N[C@@H](CCCCN)C(=O)N[C@@H](CC(=O)O)C(=O)N[C@@H](CC(N)=O)C(=O)N[C@H](C(=O)N[C@@H](C)C(=O)N1CCC[C@H]1C(=O)N[C@@H](CCCNC(=N)N)C(=O)N[C@@H](CO)C(=O)N[C@@H](CC(N)=O)C(=O)N[C@H](C(=O)NCC(=O)N1CCC[C@H]1C(=O)N[C@@H](CCC(N)=O)C(=O)NCC(=O)N1C[C@H](O)C[C@H]1C(N)=O)C(C)C)C(C)C)[C@@H](C)O` [compound 342] (H-GCRTGTCTVQWLAHQIYQFTDKDKDNVAPRSNVGPQG[Hyp]-NH2; disulfide 2-7): the figures for the EC50 at hAMY3 receptor and at hAM1 receptor were 0.054 nM and above 5 µM, respectively. Also, the “Max ThT signal (%)” value in data set [1] is 19.800%.

The values above are taken from US12139520B2 (priority 2020, dated 2024).
